molecular target: recombinant human ACC1 (rhACC1) (Homo sapiens (Human), UniProt Q13085); assay: Transcreener ADP detection FP assay, direct inhibition of rhACC1; type: biochemical; conditions: Geomean IC50, n ≥ 2 unless * then n = 1; 50 μM ATP, 30 μM acetyl-CoA
Procedure: The direct inhibition of ACC1 for the compounds of the present invention was determined using preparations of recombinant human ACC1 (rhACC1) (SEQ ID NO. 1)
Two liters of SF9 cells, infected with recombinant baculovirus containing full length human ACC1 cDNA, were suspended in ice-cold lysis buffer (25 mM Tris, pH 7.5; 150 mM NaCl; 10% glycerol; 5 mM imidazole (EMD Bioscience; Gibbstown, NJ); 2 mM TCEP (BioVectra; Charlottetown, Canada); Benzonase nuclease (10000 U/100 g cell paste; Novagen; Madison, WI); EDTA-free protease inhibitor cocktail (1 tab/50 ml; Roche Diagnostics; Mannheim, Germany). Cells were lysed by 3 cycles of freeze-thaw and centrifuged at 40,000×g for 40 minutes (4° C.). Supernatant was directly loaded onto a HisTrap FF crude column (GE Healthcare; Piscataway, NJ) and eluted with an imidazole gradient up to 0.5 M over 20 column volumes (CV). ACC1-containing fractions were pooled and diluted 1:5 with 25 mM Tris, pH 7.5, 2 mM TCEP, 10% glycerol and direct loaded onto a CaptoQ (GE Healthcare) column and eluted with an NaCl gradient up to 1 M over 20 CV's. Phosphate groups were removed from purified ACC1 by incubation with lambda phosphatase (100 U/10 μM target protein; New England Biolabs; Beverly, MA) for 14 hours at 4° C.; okadaic acid was added (1 μM final concentration; Roche Diagnostics) to inhibit the phosphatase. Purified ACC1 was exchanged into 25 mM Tris, pH 7.5, 2 mM TCEP, 10% glycerol, 0.5 M NaCl by 6 hour dialysis at 4° C. Aliquots were prepared and frozen at −80° C.
Measurement of rhACC1 Inhibition rhACC1 was assayed in a Corning #3820 (Corning, Tewksbury, MA) 384-well plate using the Transcreener ADP detection FP assay kit (Bellbrook Labs, Madison, Wisconsin) using the manufacturer's recommended conditions for a 50 μM ATP reaction. The final conditions for the assay were 50 mM HEPES, pH 7.2, 10 mM MgCl2, 7.5 mM tripotassium citrate, 2 mM DTT, 0.1 mg/mL BSA, 30 μM acetyl-CoA, 50 μM ATP, and 10 mM KHCO3. Typically, a […] was run for 60 min at room temp, and 10 μl of Transcreener stop and detect buffer was added and the combination incubated at room temp for an overnight (18 hours). The data was acquired on an Envision Fluorescence reader (PerkinElmer) using a 620 excitation Cy5 FP general dual mirror, 620 excitation Cy5 FP filter, 688 emission (S) and a 688 (P) emission filter.

| Structure (SMILES) | IC50 [nM] |
| --- | --- |
| [2H]C([2H])([2H])C(c1nc2c(s1)CC1(CCN(C(=O)c3cc(OC)c4c(c3)c(C)nn4C)CC1)CC2=O)(C([2H])([2H])[2H])C([2H])([2H])[2H] [Example 12, 1′-(7-methoxy-1,3-dimethyl-1H-indazole-5-carbonyl)-2-(2-(methyl-d3)propan-2-yl-1,1,1,3,3,3-d6)-5H-spiro[benzo[d]thiazole-6,4′-piperidin]-4(7H)-one] | 5.2 |
| COc1cccc2cc(C(=O)N3CCC4(CC3)CC(=O)c3nc(C(C)(C)C)sc3C4)[nH]c12 [Example 60] | 27.3 |
| COc1cc(C(=O)N2CCC3(CC2)CC(=O)c2nc(C(C)(C)C)sc2C3)cc2c1ccn2C [Example 83] | 11.1 |
| COc1cc(C(=O)N2CCC3(CC2)CC(=O)c2nc(C(C)(C)C)sc2C3)cc2c(C)ccnc12 [Example 95] | 46.5 |
| CNc1nc2ccc(OC)cc2cc1C(=O)N1CCC2(CC1)CC(=O)c1nc(C(C)(C)C)sc1C2 [Example 77] | 9.4 |
| CCc1cnc2c(OC)cc(C(=O)N3CCC4(CC3)CC(=O)c3nc(C(C)(C)C)sc3C4)cc2c1 [Example 105] | 33.6 |
| Cc1ccc(C)c2[nH]c(C(=O)N3CCC4(CC3)CC(=O)c3nc(C(C)(C)C)sc3C4)cc12 [Example 55] | 3.5 |
| CCNc1ccc2ccc(C(=O)N3CCC4(CC3)CC(=O)c3nc(C(C)(C)C)sc3C4)cc2n1 [Example 32, 2-(tert-butyl)-1′-(2-(ethylamino)quinoline-7-carbonyl)-5H-spiro[benzo[d]thiazole-6,4′-piperidin]-4(7H)-one] | 3.5 |
| Cc1n[nH]c2c(C)cc(C(=O)N3CCC4(CC3)CC(=O)c3nc(C(C)(C)C)sc3C4)cc12 [Example 45] | 7.6 |
| CCc1nc2c(s1)CC1(CCN(C(=O)c3cc(C)c4[nH]nc(C)c4c3)CC1)CC2=O [Example 6, 1′-(3,7-dimethyl-1H-indazole-5-carbonyl)-2-ethyl-5H-spiro[benzo[d]thiazole-6,4′-piperidin]-4(7H)-one] | 45.5 |
| CNc1cc2ccccc2cc1C(=O)N1CCC2(CC1)CC(=O)c1nc(C(C)(C)C)sc1C2 [Example 53] | 18.1 |
| COc1cc(C(=O)N2CCC3(CC2)CC(=O)c2nc(C(C)(C)C)sc2C3)cc(-c2ccccc2)n1 [Example 69] | 16.1 |
| Cc1cc(C(=O)N2CCC3(CC2)CC(=O)c2nc(C(C)(C)C)sc2C3)cc2ccn(C)c12 [Example 76] | 65.4 |
| Cc1cc(C(=O)N2CCC3(CC2)CC(=O)c2nc(C(C)(C)C)sc2C3)c(O)c2ccccc12 [Example 52] | 2.4 |
| CC(C)(C)c1nc2c(s1)CC1(CCN(C(=O)c3cc(Cl)cc4cc[nH]c34)CC1)CC2=O [Example 90] | 9.6 |
| Cc1n[nH]c2c(C)cc(C(=O)N3CCC4(CC3)CC(=O)c3nc(C5(C)CC5)sc3C4)cc12 [Example 1, 1′-(3,7-dimethyl-2H-indazole-5-carbonyl)-2-(1-methylcyclopropyl)-5H-spiro[benzo[d]thiazole-6,4′-piperidin]-4(7H)-one] | 10.6 |
| Cc1cn(C)c2c(C)cc(C(=O)N3CCC4(CC3)CC(=O)c3nc(C(C)(C)C)sc3C4)cc12 [Example 87] | 6.2 |
| CC(C)(C)Nc1ccc2ccc(C(=O)N3CCC4(CC3)CC(=O)c3nc(C(C)(C)C)sc3C4)cc2n1 [Example 70] | 4.6 |
| CCNc1cnc2c(C)cc(C(=O)N3CCC4(CC3)CC(=O)c3nc(C(C)(C)C)sc3C4)cc2c1 [Example 18, 2-(tert-butyl)-1′-(3-(ethylamino)-8-methylquinoline-6-carbonyl)-5H-spiro[benzo[d]thiazole-6,4′-piperidin]-4(7H)-one] | 3.2 |
| COc1cc(C(=O)N2CCC3(CC2)CC(=O)c2nc(C(C)(C)C)sc2C3)cc2c(OC)nccc12 [Example 100] | 3.1 |
| CC(C)(C)c1nc2c(s1)CC1(CCN(C(=O)c3ccc4ccc(NC5CCC5)nc4c3)CC1)CC2=O [Example 31, 2-(tert-butyl)-1′-(2-(cyclobutylamino)quinoline-7-carbonyl)-5H-spiro[benzo[d]thiazole-6,4′-piperidin]-4(7H)-one] | 4 |
| Cc1c[nH]c2cc(C(=O)N3CCC4(CC3)CC(=O)c3nc(C(C)(C)C)sc3C4)ccc12 [Example 51] | 22.4 |
| COc1cc(C(=O)N2CCC3(CC2)CC(=O)c2nc(C(C)(C)C)sc2C3)cc2c(C)nccc12 [Example 28, 2-(tert-butyl)-1′-(5-methoxy-1-methylisoquinoline-7-carbonyl)-5H-spiro[benzo[d]thiazole-6,4′-piperidin]-4(7H)-one] | 6.2 |
| COc1cc(C(=O)N2CCC3(CC2)CC(=O)c2nc(C(C)(C)C)sc2C3)cc2c(C)n[nH]c12 [Example 49] | 6.4 |
| COc1cc(C(=O)N2CCC3(CC2)CC(=O)c2nc(C(C)(C)C)sc2C3)c2[nH]ncc2c1 [Example 75] | 17.6 |
| CCc1n[nH]c2c(OC)cc(C(=O)N3CCC4(CC3)CC(=O)c3nc(C(C)(C)C)sc3C4)cc12 [Example 107] | 12.3 |
| COc1c(C)cc(C(=O)N2CCC3(CC2)CC(=O)c2nc(C(C)(C)C)sc2C3)c2[nH]ncc12 [Example 36, 2-(tert-butyl)-1′-(4-methoxy-5-methyl-1H-indazole-7-carbonyl)-5H-spiro[benzo[d]thiazole-6,4′-piperidin]-4(7H)-one] | 23.2 |
| CNc1nc2ccccc2cc1C(=O)N1CCC2(CC1)CC(=O)c1nc(C(C)(C)C)sc1C2 [Example 74] | 189 |

More lines, in order of falling IC50, values ahead:

| IC50 [nM] | Structure (SMILES) |
| --- | --- |
| 29.5 | Cc1cnc(C)c2cc(C(=O)N3CCC4(CC3)CC(=O)c3nc(C(C)(C)C)sc3C4)ccc12 [Example 27, 2-(tert-butyl)-1′-(1,4-dimethylisoquinoline-7-carbonyl)-5H-spiro[benzo[d]thiazole-6,4′-piperidin]-4(7H)-one] |
| 13.6 | CNc1cc(C(=O)N2CCC3(CC2)CC(=O)c2nc(C(C)(C)C)sc2C3)cc(-c2ccccc2)n1 [Example 71] |
| 13.4 | CNc1ccc2c(C)cc(C(=O)N3CCC4(CC3)CC(=O)c3nc(C5(C)CC5)sc3C4)cc2n1 [Example 9, 1′-(5-methyl-2-(methylamino)quinoline-7-carbonyl)-2-(1-methylcyclopropyl)-5H-spiro[benzo[d]thiazole-6,4′-piperidin]-4(7H)-one] |
| 11.8 | Cc1c[nH]c2ccc(C(=O)N3CCC4(CC3)CC(=O)c3nc(C(C)(C)C)sc3C4)cc12 [Example 64] |
| 11 | Cc1n[nH]c2c(C)cc(C(=O)N3CCC4(CC3)CC(=O)c3nc(C56CC(C5)C6)sc3C4)cc12 [Example 7, 2-(bicyclo[1.1.1]pentan-1-yl)-1′-(3,7-dimethyl-1H-indazole-5-carbonyl)-5H-spiro[benzo[d]thiazole-6,4′-piperidin]-4(7H)-one] |
| 10.1 | COc1cnc2c(OC)cc(C(=O)N3CCC4(CC3)CC(=O)c3nc(C(C)(C)C)sc3C4)cc2c1 [Example 101] |
| 8.6 | COc1cc(C(=O)N2CCC3(CC2)CC(=O)c2nc(C(C)(C)C)sc2C3)c2[nH]nc(C)c2c1 [Example 98] |
| 7.9 | Cc1n[nH]c2c(C)cc(C(=O)N3CCC4(CC3)CC(=O)c3nc(C(C)(C)C(C)C)sc3C4)cc12 [Example 3, 1′-(3,7-dimethyl-1H-indazole-5-carbonyl)-2-(2,3-dimethylbutan-2-yl)-5H-spiro[benzo[d]thiazole-6,4′-piperidin]-4(7H)-one] |
| 7.2 | COc1cc(C(=O)N2CCC3(CC2)CC(=O)c2nc(C(C)(C)C)sc2C3)cc(-c2ccc(C(N)=O)cc2)n1 [Example 23, 4-(4-(2-(tert-butyl)-4-oxo-4,7-dihydro-5H-spiro[benzo[d]thiazole-6,4′-piperidine]-1′-carbonyl)-6-methoxypyridin-2-yl)benzamide] |
| 6.1 | Cc1cc(C(=O)N2CCC3(CC2)CC(=O)c2nc(C(C)(C)C)sc2C3)cc2c1ccn2C [Example 82] |
| 5.4 | Cc1cc(C(=O)N2CCC3(CC2)CC(=O)c2nc(C(C)(C)C)sc2C3)cc2c(Cl)n[nH]c12 [Example 50] |
| 5.4 | COc1cc(C(=O)N2CCC3(CC2)CC(=O)c2nc(C(C)(C)C)sc2C3)cc2c1c(C)nn2C [Example 103] |
| 2.4 | Cc1c[nH]c2c(C)cc(C(=O)N3CCC4(CC3)CC(=O)c3nc(C(C)(C)C)sc3C4)cc12 [Example 92] |
| 1.5 | CNc1ccc2c(OC)cc(C(=O)N3CCC4(CC3)CC(=O)c3nc(C(C)(C)C)sc3C4)cc2n1 [Example 40, 2-(tert-butyl)-1′-(5-methoxy-2-(methylamino)quinoline-7-carbonyl)-5H-spiro[benzo[d]thiazole-6,4′-piperidin]-4(7H)-one] |

Reference: patent US20240109915A1, “NOVEL ACC INHIBITORS” (Pfizer Inc., priority 2022, published 2024)
